Data: patent publication US9409884B2 (Rigel Pharmaceuticals, Inc., priority 2012, dated 2016)

Biological target: AMPK
Assay: AMPK activation, enzyme-linked immunosorbent assay
Assay type: biochemical
Settings: Table 8, compounds of Table 1
In short: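 AMPK activation by test compounds was measured by enzyme-linked immunosorbent assay.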

Row | EC50 [nM] | SMILES
1 | < 100 | Cc1c(C(=O)NC2CCN(Cc3ccc(C#N)cc3)CC2)oc2cc(OC3CCN(c4ccc(C(F)(F)F)cc4)CC3)ccc12 [Compound 1-64, N-(1-(4-cyanobenzyl)piperidin-4-yl)-3-methyl-6-(1-(4-(trifluoromethyl)phenyl)piperidin-4-yloxy)benzofuran-2-carboxamide]
2 | < 100 | Cc1c(C(=O)NC2CCN(Cc3ccncc3)CC2)oc2cc(OC3CCN(c4ccc(C(F)(F)F)cc4)CC3)ccc12 [Compound 1-65, 3-methyl-N-(1-(pyridin-4-ylmethyl)piperidin-4-yl)-6-(1-(4-(trifluoromethyl)phenyl)piperidin-4-yloxy)benzofuran-2-carboxamide]
3 | < 100 | Cc1c(C(=O)NC2CCN(Cc3cccc(C#N)c3)CC2)oc2cc(OC3CCN(c4ccc(C(F)(F)F)cc4)CC3)ccc12 [Compound 1-66, N-(1-(3-cyanobenzyl)piperidin-4-yl)-3-methyl-6-(1-(4-(trifluoromethyl)phenyl)piperidin-4-yloxy)benzofuran-2-carboxamide]
4 | < 100 | Cc1c(C(=O)NC2CCN(Cc3ccccc3C#N)CC2)oc2cc(OC3CCN(c4ccc(C(F)(F)F)cc4)CC3)ccc12 [Compound 1-67, N-(1-(2-cyanobenzyl)piperidin-4-yl)-3-methyl-6-(1-(4-(trifluoromethyl)phenyl)piperidin-4-yloxy)benzofuran-2-carboxamide]
5 | < 100 | Cc1c(C(=O)NC2CCN(Cc3ccccn3)CC2)oc2cc(OC3CCN(c4ccc(C(F)(F)F)cc4)CC3)ccc12 [Compound 1-68, 3-methyl-N-(1-(pyridin-2-ylmethyl)piperidin-4-yl)-6-(1-(4-(trifluoromethyl)phenyl)piperidin-4-yloxy)benzofuran-2-carboxamide]
6 | < 100 | Cc1c(C(=O)NC2CCN(Cc3cccnc3)CC2)oc2cc(OC3CCN(c4ccc(C(F)(F)F)cc4)CC3)ccc12 [Compound 1-69, 3-methyl-N-(1-(pyridin-3-ylmethyl)piperidin-4-yl)-6-(1-(4-(trifluoromethyl)phenyl)piperidin-4-yloxy)benzofuran-2-carboxamide]
7 | < 100 | N#Cc1ccc(CN2CCC(Oc3ccc4oc(C(=O)NC5CCN(Cc6ccccc6)CC5)cc4c3)CC2)cc1 [Compound 1-70, N-(1-benzylpiperidin-4-yl)-5-(1-(4-cyanobenzyl)piperidin-4-yloxy)benzofuran-2-carboxamide]
8 | < 100 | N#Cc1ccc(N2CCC(Oc3ccc4oc(C(=O)NC5CCN(Cc6ccccc6)CC5)cc4c3)CC2)cc1 [Compound 1-71, N-(1-benzylpiperidin-4-yl)-5-(1-(4-cyanophenyl)piperidin-4-yloxy)benzofuran-2-carboxamide]
9 | 100 to 500 | O=C(NC1CCN(Cc2ccccc2)CC1)c1cc2cc(OC3CCN(Cc4ccc(Cl)cc4)CC3)ccc2o1 [Compound 1-72, N-(1-benzylpiperidin-4-yl)-5-(1-(4-chlorobenzyl)piperidin-4-yloxy)benzofuran-2-carboxamide]
10 | 500 to 1000 | O=C(NC1CCN(Cc2ccccc2)CC1)c1cc2cc(OC3CCN(Cc4cccc(C(F)(F)F)c4)CC3)ccc2o1 [Compound 1-73, N-(1-benzylpiperidin-4-yl)-5-(1-(3-(trifluoromethyl)benzyl)piperidin-4-yloxy)benzofuran-2-carboxamide]
11 | 100 to 500 | O=C(NC1CCN(Cc2ccccc2)CC1)c1cc2cc(OC3CCN(Cc4ccc(F)c(F)c4)CC3)ccc2o1 [Compound 1-74, N-(1-benzylpiperidin-4-yl)-5-(1-(3,4-difluorobenzyl)piperidin-4-yloxy)benzofuran-2-carboxamide]
12 | < 100 | O=C(NC1CCN(Cc2ccccc2)CC1)c1cc2cc(OC3CCN(c4ccc(C(F)(F)F)cc4)CC3)ccc2o1 [Compound 1-75, N-(1-benzylpiperidin-4-yl)-5-(1-(4-(trifluoromethyl)phenyl)piperidin-4-yloxy)benzofuran-2-carboxamide]
13 | 100 to 500 | O=C(NC1CCN(Cc2ccncc2)CC1)c1cc2cc(OC3CCN(c4ccc(C(F)(F)F)cc4)CC3)ccc2o1 [Compound 1-76, N-(1-(pyridin-4-ylmethyl)piperidin-4-yl)-5-(1-(4-(trifluoromethyl)phenyl)piperidin-4-yloxy)benzofuran-2-carboxamide]
14 | 100 to 500 | O=C(NC1CCN(Cc2ccncc2)CC1)c1cc2cc(OC3CCN(Cc4ccc(Cl)cc4)CC3)ccc2o1 [Compound 1-77, 5-(1-(4-chlorobenzyl)piperidin-4-yloxy)-N-(1-(pyridin-4-ylmethyl)piperidin-4-yl)benzofuran-2-carboxamide]
15 | < 100 | O=C(NC1CCN(Cc2ccncc2)CC1)c1cc2cc(OC3CCN(c4ccc(OC(F)(F)F)cc4)CC3)ccc2o1 [Compound 1-78, N-(1-(pyridin-4-ylmethyl)piperidin-4-yl)-5-(1-(4-(trifluoromethoxy)phenyl)piperidin-4-yloxy)benzofuran-2-carboxamide]
16 | 100 to 500 | N#Cc1ccc(CN2CCC(Oc3ccc4oc(C(=O)NC5CCN(Cc6ccncc6)CC5)cc4c3)CC2)cc1 [Compound 1-79, 5-(1-(4-cyanobenzyl)piperidin-4-yloxy)-N-(1-(pyridin-4-ylmethyl)piperidin-4-yl)benzofuran-2-carboxamide]

Row | EC50 [nM] | SMILES
17 | < 100 | O=C(NC1CCN(Cc2ccccc2)CC1)c1cc2cc(OC3CCN(c4ccc(OC(F)(F)F)cc4)CC3)ccc2o1 [Compound 1-80, N-(1-benzylpiperidin-4-yl)-5-(1-(4-(trifluoromethoxy)phenyl)piperidin-4-yloxy)benzofuran-2-carboxamide]
18 | 100 to 500 | CC(C)(C)OC(=O)N1CCC(NC(=O)c2cc3ccc(OC4CCN(c5ccc(OC(F)(F)F)cc5)CC4)cc3o2)CC1 [Compound 1-81, tert-butyl 4-(6-(1-(4-(trifluoromethoxy)phenyl)piperidin-4-yloxy)benzofuran-2-carboxamido) piperidine-1-carboxylate]
19 | 100 to 500 | CC(C)(C)OC(=O)N1CCC(NC(=O)c2cc3ccc(OC4CCN(c5ccc(C(F)(F)F)cc5)CC4)cc3o2)CC1 [Compound 1-82, tert-butyl 4-(6-(1-(4-(trifluoromethyl)phenyl)piperidin-4-yloxy)benzofuran-2-carboxamido) piperidine-1-carboxylate]
20 | 100 to 500 | O=C(NC1CCNCC1)c1cc2ccc(OC3CCN(c4ccc(OC(F)(F)F)cc4)CC3)cc2o1 [Compound 1-83, N-(piperidin-4-yl)-6-(1-(4-(trifluoromethoxy)phenyl)piperidin-4-yloxy)benzofuran-2-carboxamide]
21 | 5000 to 10000 | O=C(NC1CCNCC1)c1cc2ccc(OC3CCN(c4ccc(C(F)(F)F)cc4)CC3)cc2o1 [Compound 1-84, N-(piperidin-4-yl)-6-(1-(4-(trifluoromethyl)phenyl)piperidin-4-yloxy)benzofuran-2-carboxamide]
22 | 500 to 1000 | CC(C)(C)OC(=O)N1CCC(NC(=O)c2cc3cc(OC4CCN(c5ccc(C(F)(F)F)cc5)CC4)ccc3o2)CC1 [Compound 1-85, tert-butyl 4-(5-(1-(4-(trifluoromethyl)phenyl)piperidin-4-yloxy)benzofuran-2-carboxamido) piperidine-1-carboxylate]
23 | > 10000 | O=C(NC1CCNCC1)c1cc2cc(OC3CCN(c4ccc(C(F)(F)F)cc4)CC3)ccc2o1 [Compound 1-86, N-(piperidin-4-yl)-5-(1-(4-(trifluoromethyl)phenyl)piperidin-4-yloxy)benzofuran-2-carboxamide]
24 | < 100 | O=C(NC1CCN(Cc2ccncc2)CC1)c1cc2ccc(OC3CCN(c4ccc(C(F)(F)F)cc4)CC3)cc2o1 [Compound 1-87, N-(1-(pyridin-4-ylmethyl)piperidin-4-yl)-6-(1-(4-(trifluoromethyl)phenyl)piperidin-4-yloxy)benzofuran-2-carboxamide]
25 | < 100 | O=C(NC1CCN(Cc2ccncc2)CC1)c1cc2ccc(OC3CCN(c4ccc(OC(F)(F)F)cc4)CC3)cc2o1 [Compound 1-88, N-(1-(pyridin-4-ylmethyl)piperidin-4-yl)-6-(1-(4-(trifluoromethoxy)phenyl)piperidin-4-yloxy)benzofuran-2-carboxamide]
26 | < 100 | N#Cc1ccc(CN2CCC(NC(=O)c3cc4ccc(OC5CCN(c6ccc(OC(F)(F)F)cc6)CC5)cc4o3)CC2)cc1 [Compound 1-89, N-(1-(4-cyanobenzyl)piperidin-4-yl)-6-(1-(4-(trifluoromethoxy)phenyl)piperidin-4-yloxy)benzofuran-2-carboxamide]
27 | < 100 | N#Cc1ccc(CN2CCC(NC(=O)c3cc4ccc(OC5CCN(c6ccc(C(F)(F)F)cc6)CC5)cc4o3)CC2)cc1 [Compound 1-90, N-(1-(4-cyanobenzyl)piperidin-4-yl)-6-(1-(4-(trifluoromethyl)phenyl)piperidin-4-yloxy)benzofuran-2-carboxamide]
28 | > 10000 | O=C(NC1CCN(Cc2ccc(F)cc2)CC1)c1cc2ccc(OC3CCN(c4ccc(C(F)(F)F)cc4)CC3)cc2o1 [Compound 1-91, N-(1-(4-fluorobenzyl)piperidin-4-yl)-6-(1-(4-(trifluoromethyl)phenyl)piperidin-4-yloxy)benzofuran-2-carboxamide]
29 | 500 to 1000 | O=C(NC1CCN(Cc2ccccn2)CC1)c1cc2ccc(OC3CCN(c4ccc(OC(F)(F)F)cc4)CC3)cc2o1 [Compound 1-92, N-(1-(pyridin-2-ylmethyl)piperidin-4-yl)-6-(1-(4-(trifluoromethoxy)phenyl)piperidin-4-yloxy)benzofuran-2-carboxamide]
30 | 100 to 500 | O=C(NC1CCN(Cc2ccccn2)CC1)c1cc2ccc(OC3CCN(c4ccc(C(F)(F)F)cc4)CC3)cc2o1 [Compound 1-93, N-(1-(pyridin-2-ylmethyl)piperidin-4-yl)-6-(1-(4-(trifluoromethyl)phenyl)piperidin-4-yloxy)benzofuran-2-carboxamide]
31 | < 100 | O=C(NC1CCN(Cc2ccc(F)cc2)CC1)c1cc2ccc(OC3CCN(c4ccc(OC(F)(F)F)cc4)CC3)cc2o1 [Compound 1-94, N-(1-(4-fluorobenzyl)piperidin-4-yl)-6-(1-(4-(trifluoromethoxy)phenyl)piperidin-4-yloxy)benzofuran-2-carboxamide]
32 | < 100 | O=C(NC1CCN(Cc2cccnc2)CC1)c1cc2ccc(OC3CCN(c4ccc(OC(F)(F)F)cc4)CC3)cc2o1 [Compound 1-95, N-(1-(pyridin-3-ylmethyl)piperidin-4-yl)-6-(1-(4-(trifluoromethoxy)phenyl)piperidin-4-yloxy)benzofuran-2-carboxamide]
